# Measurements taken from patent US11535597B2, “Photoreactive ligands and uses thereof” (The Scripps Research Institute, priority 2017, dated 2022).
# Test system: proteins in HEK293T cells
# Experiment: MS-based mapping of FFF probe-modified peptides (isoTOP, sites of labeling)
# Assay type: binding, human
# Experimental: Preparation and analysis was adapted from methods previously reported. In brief, for global mapping of fragment probe-modified peptides, separate 10 cm dishes of cells were treated with probes (200-250 μM) in 3.0 mL of DMEM (serum-free) and (if applicable) competitor ligands, proteomes harvested and subjected to click chemistry conditions with either light or heavy isotopically labeled biotin-TEV-azide (10 μL of 5 mM stocks in DMSO, final concentration=100 μM), TCEP, ligand and CuSO4 as detailed above. The samples were allowed to react for 1 h at which point the samples were centrifuged (16,000 g, 5 min, 4° C.). The resulting pellets were sonicated in ice-cold methanol (500 μL) and the resuspended light- and heavy-labeled samples were then combined and centrifuged (16,000 g, 5 min, 4° C.). The pellets were then solubilized in PBS containing 1.2% SDS (1 mL) with sonication and heating (5 min, 95° C.). Samples were transferred to falcon tubes containing DPBS (5 mL), to which a 100 μL of streptavidin-agarose beads slurry was added. After incubation, the beads (3 hr) were pelleted by centrifugation (1,400 g, 3 min) and were washed (2×10 mL PBS and 2×10 mL water). The beads were transferred to eppendorf tubes with 1 mL DPBS, centrifuged (1,400 g, 3 min), and resuspended in PBS containing 6 M urea. To this was added 10 mM DTT (25 μL of a 200 mM stock in water) and the beads were incubated at 65° C. for 15 mins. 20 mM iodoacetamide (25 μL of a 400 mM stock in water) was then added and allowed to react at 37° C. for 30 mins with shaking. The bead mixture was diluted with 900 μL PBS, pelleted by centrifugation (1,400 g, 3 min), and resuspended in 200 μL 2M urea (DPBS) containing trypsin and CaCl2 as described above. The beads were separated from the digest by centrifugation (1,000 g, 1 min), washed (2×1 mL PBS and 2×1 mL water) and then transferred to fresh eppendorfs with 1 mL water. The washed beads were washed once further in 150 μL TEV buffer (50 mM Tris, pH 8, 0.5 mM EDTA, 1 mM DTT) by centrifugation (1,400 g, 3 min) and the resuspended in 150 μL TEV buffer. 5 μL TEV protease (80 μM) was added and the reactions were rotated overnight at 29° C. The TEV digest was separated from the beads by centrifugation (1,400 g, 3 min) and the beads were washed once with water (100 μL). The samples were then acidified to a final concentration of 5% (v/v) formic acid and stored at −80° C. prior to analysis.
# The resulting probe-modified peptides were collected for MS analysis, which was performed as described above with differences in the salt bumps applied in the chromatographic gradients which in this case were 0%, 30%, 60%, 90% and 100% NH4OAc (500 μM). The protein identification searches of the MS data were performed with the following changes applied to identify the peptides modified with the corresponding fragment probe and the cleaved TEV tag. All amino acids were considered as possible residues for modification. To facilitate the computational searches, sets of up to 3 amino acids were searched using ProLuCID and filtered with DTASelect as described above. […] The isoTOP ratios for probe labeled peptides were quantified using the in-house software CIMAGE.
# For each protein in the site-of-labeling dataset, the UniProtKB accession number was used to map and collect relevant structures from the RCSB Protein Data Bank (PDB) fulfilling the following criteria: structures determined by X-ray crystallography, wild-type protein, Homo sapiens as the sole source organism. […] Fpocket 2.0 was used to detect potential binding pockets for the resultant structures with all parameters set at recommended default. Pockets with volume less than 500 Å^3 were removed from output prior to further analysis. Residues surrounding fpocket predicted binding pockets for each protein were collected to determine the number of residues overlapping with isoTOP peptides.
# [1] = protein PSMA2 Proteasome subunit alpha type-2 (P25787)
# [2] = protein PSMA2 Proteasome subunit alpha type-2, residues of the probe-labeled peptide
smiles,measurement,setting,value
"C#CCCC1(CCC(=O)NC2N=C(c3ccccc3)c3ccccc3NC2=O)N=N1 (centres unmarked) [probe 2, 3-(3-(But-3-yn-1-yl)-3H-diazirin-3-yl)-N-(2-oxo-5-phenyl-2,3-dihydro-1H-benzo[e][1,4]diazepin-3-yl)propanamide]",Labeled Peptide of GSTP1 Glutathione S-transferase P,"Accession P09211, residues of probe-labeled peptide, family Enzymes",56-71
same,Labeled Peptide of HNRNPH3 Heterogeneous nuclear ribonucleoprotein H3,"Accession P31942, residues of probe-labeled peptide, family Transcription factors, Regulators",324-343
same,Labeled Peptide of FUS RNA-binding protein FUS,"Accession P35637, residues of probe-labeled peptide, family Transcription factors, Regulators",335-348
same,Labeled Peptide,"GSTP1 Glutathione S-transferase P, residues of probe-modified peptide",56-71
same,Labeled Peptide,"HNRNPL Heterogeneous nuclear ribonucleoprotein L, residues of probe-modified peptide",399-411
same,Labeled Peptide,"MESDC2 LDLR chaperone MESD (Q14696), residues of the probe-labeled peptide",113-127
same,Labeled Peptide,"NOC2L (Q9Y3T9), residues of the probe-labeled peptide",591-606
same,Labeled Peptide,P09211 GSTP1 Glutathione S-transferase P,56-71
same,Labeled Peptide (residues) of PPP1CC Serine/threonine-protein phosphatase PP1-gamma cat,"P36873, peptide IYGFYDECK, PDB 4UT2",133-141
same,Labeled Peptide,P55263 ADK Adenosine kinase,209-224
same,Labeled Peptide (residues) of PPP1CA Serine/threonine-protein phosphatase PP1-alpha cat,"P62136, peptide IYGFYDECK, PDB 4XPN",133-141
same,Labeled Peptide,"protein ADK (P55263), residues of probe-labeled peptide",209-224
same,Labeled Peptide,"protein ADK Adenosine kinase, residues of probe-labeled peptide",209-224
same,Labeled Peptide,"protein BSG Basigin (P35613), residues of probe-labeled peptide",228-243
same,Labeled Peptide,"protein CLPTM1 Cleft lip and palate transmembrane protein 1 (O96005), residues of probe-labeled peptide",548-562
same,Labeled Peptide,"protein EIF3E Eukaryotic translation initiation factor 3 submit (P60228), residues of probe-labeled peptide",173-191
same,Labeled Peptide,"protein EIF3H Eukaryotic translation initiation factor 3 submit (O15372), residues of probe-labeled peptide",207-220
same,Labeled Peptide,"protein EQSR1 RNA-binding protein EWS (Q01844), residues of probe-labeled peptide",269-292
same,Labeled Peptide,"protein FARSB Phenylalanine--tRNA ligase beta subunit, residues of probe-labeled peptide",518-530
same,Labeled Peptide,"protein FARSB Phenylalanini--tRNA ligase beta subunit (Q9NSD9), residues of probe-labeled peptide",518-530
same,Labeled Peptide,protein P62917 RPL8 60S ribosomal protein L8,129-144
same,Labeled Peptide,protein PFDN5 Prefoldin subunit 5 (Q99471),20-37
same,Labeled Peptide,"protein PPP1CA Serine/threonine-protein phosphatase PP1-alpha cat, residues of the probe-labeled peptide",133-141
same,Labeled Peptide,protein PPP1CA Serine/threonine-protein phosphate PP1-alpha cat (P62136),133-141
same,Labeled Peptide,protein PPP1CB Serine/threonine-protein phosphate PP1-alpha cat (P62140),132-140
same,Labeled Peptide,"protein PPP1CC Serine/threonine-protein phosphatase PP1-gamma cat, residues of the probe-labeled peptide",133-141
same,Labeled Peptide,protein PPP1CC Serine/threonine-protein phosphate PP1-gamma cat (P36873),133-141
same,Labeled Peptide,[1],144-159
same,Labeled Peptide,[2],144-159
same,Labeled Peptide,protein PSMD11 26S proteasome non-ATPase regulatory subunit 11 (O00231),164-175
same,Labeled Peptide,"protein PTCD3 Pentatricopeptide repeat-containing protein 3, mit (Q96EY7)",119-126
same,Labeled Peptide,protein Q6NUK1 SCLC25A24 Calcium-binding mitochondrial carrier protein SCaM,454-469
same,Labeled Peptide,protein Q15631 TSN Translin,205-215
same,Labeled Peptide,protein Q92804 TAF15 TATA-binding protein-associated factor 2N,284-297
same,Labeled Peptide,protein QKI Protein quaking (Q96PU8),192-205
same,Labeled Peptide,"protein RUVBL1 RuvB-like 1, residues of the probe-labeled peptide",318-333
same,Labeled Peptide,"protein RUVBL1 RuvB-like 1, residues of the probe-modified peptide",91-107
same,Labeled Peptide,"protein TSN Translin, residues of the probe-modified peptide",205-215
"C#CCCC1(CCC(=O)Nc2ccc3oc(=O)ccc3c2)N=N1 [probe 3, 3-(3-(But-3-yn-1-yl)-3H-diazirin-3-yl)-N-(2-oxo-2H-chromen-6-yl)propanamide]",Labeled Peptide of H2AFZ Histone H2A.Z,"Accession P0C0S5, residues of probe-labeled peptide, family Transcription factors, Regulators",47-75
same,Labeled Peptide of GRWD1 Glutamate-rich WD repeat-containing protein 1,"Accession Q9BQ67, residues of probe-labeled peptide, family Uncategorized",183-198
same,Labeled Peptide,"H2AFZ Histone H2A.Z, residues of probe-modified peptide",47-75
same,Labeled Peptide,"HSD17B4 Peroxisomal multifunctional enzyme type 2, residues of probe-modified peptide",169-183
same,Labeled Peptide,"LMNA Prelamin-A/C (P02545), residues of the probe-labeled peptide",172-180
same,Labeled Peptide,"NONO (Q15233), residues of the probe-labeled peptide",127-135
same,Labeled Peptide,P00387 CYB5R3 NADH-cytochrome b5 reductase 3,235-241
same,Labeled Peptide (residues) of PGK1 Phosphoglycerate kinase 1,"P00558, peptide QIVWNGPVGVFEWEAFAR, PDB 2WZB",333-350
same,Labeled Peptide,"P12532 CKMT1B Creatine kinase U-type, mitochondrial",257-269
same,Labeled Peptide,P38117 ETFB Electron transfer flavoprotein subunit beta,36-51
same,Labeled Peptide,P51659 HSD17B4 multifunctional enzyme type 2,169-183
same,Labeled Peptide,"PARP1 (P09874), residues of the probe-labeled peptide",954-1000
same,Labeled Peptide,Q08211 DHX9 ATP-dependent RNA helicase A,448-456
same,Labeled Peptide,"protein ABHD10 (Q9NUJ1), residues of probe-labeled peptide",285-300
same,Labeled Peptide,"protein ACTL6A (O96019), residues of probe-labeled peptide",25-34
same,Labeled Peptide,"protein ANAPC7 (Q9UJX3), residues of probe-labeled peptide",407-424
same,Labeled Peptide,"protein CDK5RAP3 CDK5 regulatory subuni-associated protein 3 (Q96JB5), residues of probe-labeled peptide",351-367
same,Labeled Peptide,"protein CKMT1B Creatine kinase U-type, mitochondria, residues of probe-labeled peptide",257-269
same,Labeled Peptide,"protein CKMT1B Creatine kinase U-type, motochondrial (P12532), residues of probe-labeled peptide",257-269
same,Labeled Peptide,"protein CYB5R3 NADH-cytochrome b5 reductase 3 (P00387), residues of probe-labeled peptide",235-241
same,Labeled Peptide,"protein CYB5R3 NADH-cytochrome b5 reductase 3, residues of probe-labeled peptide",235-241
same,Labeled Peptide,"protein DDX17 Propable ATP-dependent RNA helicase DDX17 (Q92841), residues of probe-labeled peptide",536-547
same,Labeled Peptide,"protein DHX9 ATP-dependent RNA helicase A (Q08211), residues of probe-labeled peptide",448-456
same,Labeled Peptide,"protein DHX9 ATP-dependent RNA helicase A, residues of probe-labeled peptide",448-456
same,Labeled Peptide,"protein EEF1G Elongation factor 1-gamma (P26641), residues of probe-labeled peptide",58-85
same,Labeled Peptide,"protein ETFB Electron transfer flavoprotein subunit beta (P38117), residues of probe-labeled peptide",36-51
same,Labeled Peptide,"protein ETFB Electron transfer flavoprotein subunit beta, residues of probe-labeled peptide",36-51
same,Labeled Peptide,"protein NONO Non-POU domain-containing octamer-binding protein, residues of the probe-labeled peptide",127-135
same,Labeled Peptide,protein PGK1 Phosphoglycerate kinase 1 (P00558),333-350
same,Labeled Peptide,"protein PGK1 Phosphoglycerate kinase 1, residues of the probe-labeled peptide",333-350
same,Labeled Peptide,[1],19-39
same,Labeled Peptide,[2],19-39
same,Labeled Peptide,protein Q96I99 SUCLG2 Succinyl-CoA ligase,151-160
same,Labeled Peptide,protein Q01105 SET Protein SET,91-122
same,Labeled Peptide,"protein RBMXL1 RNA binding motif protein, X-linked-like-1 (Q96E39)",245-252
"C#CCCC1(CCC(=O)NCCc2ccc3c(c2)OCO3)N=N1 [probe 15, N-(2-(Benzo[d][1,3]dioxol-5-yl)ethyl)-3-(3-(but-3-yn-1-yl)-3H-diazirin-3-yl)propanamide]",Labeled Peptide,"MCM4 (P33991), residues of the probe-labeled peptide",502-516
same,Labeled Peptide,"NUDT12 (Q9BQG2), residues of the probe-labeled peptide",143-166
same,Labeled Peptide,"protein FDFT1 Squalene synthase (P37268), residues of probe-labeled peptide",78-92
same,Labeled Peptide,"protein FDFT1 Squalene synthase, residues of probe-labeled peptide",78-92
